As usually defined, the clearance is the volume of plasma or blood freed of the substance per unit of time. Read a low clearance as inefficient removal. The term Tmax denotes the time at which the peak concentration occurs. What is called AUC(0-t) is exposure summed from dosing to a finite time, without extrapolation to infinity. Read a low AUC(0-t) as less exposure. The term half-life denotes the time in which the quantity being followed falls by half. As a reminder, the fraction unbound is the share of the substance not bound to proteins or other matrix. One may read the inhibition as the change of the read-out against control, counted positive when it falls. Low readings indicate a weak effect, high ones a strong effect.

Here are results for 1 compound from ChEMBL document CHEMBL6083275, “Discovery and evaluation of HW161023 as a potent and orally active AAK1 inhibitor” (Bioorg Med Chem Lett, 2024).

Series [1] is described as follows: Clearance in C57BL/6J mouse at 1 mg/kg, iv. To be noted: in vivo. Format: ADME, organism-based.
Series [2] in a line: Apparent volume of distribution in C57BL/6J mouse at 1 mg/kg, iv. Format: ADME, organism-based. To be noted: in vivo, read-out: Vz.
A short description of series [3]: Tmax in C57BL/6J mouse at 10 mg/kg, po. Format: ADME, organism-based. To be noted: in vivo.
Series [4] is described as follows: AUC (0 to 24 hrs) in C57BL/6J mouse at 10 mg/kg, po. Format: ADME, organism-based. To be noted: in vivo.
Series [5] in a line: Oral bioavailability in C57BL/6J mouse at 10 mg/kg. Format: ADME, organism-based. To be noted: in vivo.
Series [6] is described as follows: Metabolic stability in human liver microsomes assessed as half-life. The class given is ADME, Microsome. For orientation: Liver microsomes are a subcellular fraction often used to study metabolism.
Series [7] in a line: Metabolic stability in rat liver microsomes assessed as half-life. The class given is ADME, Microsome.
Series [8] can be described thus: Metabolic stability in dog liver microsomes assessed as half-life. The class given is ADME, Canis lupus familiaris, Microsome.
The nature of series [9]: Protein binding in dog plasma assessed as unbound fraction. Format: ADME, cell-free, Canis lupus familiaris.
The target of the next series is CYP2C9 (Homo sapiens, UniProt P11712). The series is described as follows: Inhibition of CYP2C9 (unknown origin) at 10 uM relative to control. The class given is ADME.
For the next series, the target named is CYP2D6 (Homo sapiens, UniProt P10635). Nature of the series: Inhibition of CYP2D6 (unknown origin) at 10 uM relative to control. The class given is ADME.
Series [10] addresses T1, CYP3A4 (Homo sapiens, UniProt P08684). The series is described as follows: Inhibition of CYP3A4 (unknown origin) using midazolam as substrate at 10 uM relative to control. To be noted: probe midazolam. Format: ADME.
The target in series [11] is T1, CYP3A4. Nature of the series: Inhibition of CYP3A4 (unknown origin) using testosterone as substrate at 10 uM relative to control. To be noted: probe testosterone. Format: ADME.
Series [12] is described as follows: AUC (0 to 24 hrs) in rat at 10 mg/kg, po. To be noted: in vivo. Format: ADME, organism-based.
Series [13] in a line: Apparent volume of distribution in rat at 1 mg/kg, iv. Format: ADME, organism-based. To be noted: in vivo, read-out: Vz.
Series [14] can be described thus: Clearance in rat at 1 mg/kg, iv. Format: ADME, organism-based. To be noted: in vivo.
The nature of series [15]: AUC (0 to 24 hrs) in dog at 5 mg/kg, po. The class given is ADME, organism-based, Canis lupus familiaris. To be noted: in vivo.
Series [16] can be described thus: Tmax in dog at 5 mg/kg, po. The class given is ADME, organism-based, Canis lupus familiaris. To be noted: in vivo.
The nature of series [17]: Oral bioavailability in dog at 5 mg/kg. The class given is ADME, organism-based, Canis lupus familiaris. To be noted: in vivo.
The next series relates to Rattus norvegicus. The series is described as follows: Analgesic activity in sciatic nerved CCI-induced neuropathic pain rat model assessed as reduction in mechanical hyperalgesia at 10 mg/kg, po administered from day 14 post CCI-surgery and measured after 3.5 to 5.5 hrs by Von Frey test. Format: functional, organism-based. To be noted: time 3.5-5.5 hrs.
For series [18], the target named is T2, Cyclin-G-associated kinase (Homo sapiens) (UniProt O14976).
T2 sequence (whole entry): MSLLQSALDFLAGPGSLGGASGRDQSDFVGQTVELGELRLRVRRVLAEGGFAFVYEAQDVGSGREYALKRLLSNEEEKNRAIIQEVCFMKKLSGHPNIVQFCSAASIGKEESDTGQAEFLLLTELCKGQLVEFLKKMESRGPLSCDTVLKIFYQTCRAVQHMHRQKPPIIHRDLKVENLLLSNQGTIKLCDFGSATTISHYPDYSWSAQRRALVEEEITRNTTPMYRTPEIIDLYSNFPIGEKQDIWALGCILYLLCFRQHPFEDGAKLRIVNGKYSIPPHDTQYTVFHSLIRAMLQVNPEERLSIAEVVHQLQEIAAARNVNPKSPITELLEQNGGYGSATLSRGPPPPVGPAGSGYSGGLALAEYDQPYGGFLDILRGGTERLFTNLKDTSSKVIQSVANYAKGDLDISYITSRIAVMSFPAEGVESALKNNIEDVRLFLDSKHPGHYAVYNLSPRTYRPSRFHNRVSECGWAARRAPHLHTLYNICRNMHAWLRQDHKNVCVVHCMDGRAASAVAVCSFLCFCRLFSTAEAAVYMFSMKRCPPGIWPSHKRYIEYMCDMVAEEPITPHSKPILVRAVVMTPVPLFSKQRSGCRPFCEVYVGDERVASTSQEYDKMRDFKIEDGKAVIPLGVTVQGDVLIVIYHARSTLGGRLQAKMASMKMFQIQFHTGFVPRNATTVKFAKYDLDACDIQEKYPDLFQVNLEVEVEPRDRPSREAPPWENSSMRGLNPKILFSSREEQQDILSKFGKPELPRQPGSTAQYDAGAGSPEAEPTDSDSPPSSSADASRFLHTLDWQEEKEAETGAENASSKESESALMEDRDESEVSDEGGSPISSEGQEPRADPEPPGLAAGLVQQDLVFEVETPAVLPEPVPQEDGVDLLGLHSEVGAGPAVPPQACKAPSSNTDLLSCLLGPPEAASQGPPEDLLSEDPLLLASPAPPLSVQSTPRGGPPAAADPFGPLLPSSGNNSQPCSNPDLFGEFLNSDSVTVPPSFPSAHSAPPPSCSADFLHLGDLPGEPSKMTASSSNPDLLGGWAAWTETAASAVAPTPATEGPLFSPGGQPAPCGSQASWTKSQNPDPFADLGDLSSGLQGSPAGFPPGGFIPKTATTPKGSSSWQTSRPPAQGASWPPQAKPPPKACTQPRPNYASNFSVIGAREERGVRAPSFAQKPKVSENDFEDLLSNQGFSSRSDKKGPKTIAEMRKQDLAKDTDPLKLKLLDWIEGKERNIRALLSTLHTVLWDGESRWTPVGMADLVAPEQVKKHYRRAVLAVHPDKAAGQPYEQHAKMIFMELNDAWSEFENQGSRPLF
The series is described as follows: Inhibition of wildtype GAK (unknown origin) at 1 uM relative to control.

Series [19] has as its target T3, cGMP-dependent protein kinase 2 (Homo sapiens) (UniProt Q13237).
T3 sequence (whole entry): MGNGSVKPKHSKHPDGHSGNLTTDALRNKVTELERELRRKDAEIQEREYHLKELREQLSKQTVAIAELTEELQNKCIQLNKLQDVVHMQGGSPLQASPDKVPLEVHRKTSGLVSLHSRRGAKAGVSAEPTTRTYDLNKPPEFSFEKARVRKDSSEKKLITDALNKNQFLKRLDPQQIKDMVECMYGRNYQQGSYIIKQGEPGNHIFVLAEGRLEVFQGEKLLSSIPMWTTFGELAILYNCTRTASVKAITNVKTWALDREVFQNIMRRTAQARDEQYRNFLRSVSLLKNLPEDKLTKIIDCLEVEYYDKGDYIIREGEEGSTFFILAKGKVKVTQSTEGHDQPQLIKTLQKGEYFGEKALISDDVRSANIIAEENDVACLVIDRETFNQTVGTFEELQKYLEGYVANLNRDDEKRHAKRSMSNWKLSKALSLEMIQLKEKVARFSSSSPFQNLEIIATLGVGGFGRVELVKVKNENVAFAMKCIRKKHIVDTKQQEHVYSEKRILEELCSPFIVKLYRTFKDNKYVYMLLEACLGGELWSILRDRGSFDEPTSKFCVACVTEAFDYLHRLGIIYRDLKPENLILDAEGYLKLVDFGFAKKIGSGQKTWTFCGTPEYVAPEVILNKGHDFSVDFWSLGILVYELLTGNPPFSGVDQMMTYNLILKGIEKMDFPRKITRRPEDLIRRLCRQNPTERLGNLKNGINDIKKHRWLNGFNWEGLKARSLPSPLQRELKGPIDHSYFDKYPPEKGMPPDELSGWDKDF
The series is described as follows: Inhibition of wildtype CGK2 (unknown origin) at 1 uM relative to control.

T1 sequence (P08684 whole entry): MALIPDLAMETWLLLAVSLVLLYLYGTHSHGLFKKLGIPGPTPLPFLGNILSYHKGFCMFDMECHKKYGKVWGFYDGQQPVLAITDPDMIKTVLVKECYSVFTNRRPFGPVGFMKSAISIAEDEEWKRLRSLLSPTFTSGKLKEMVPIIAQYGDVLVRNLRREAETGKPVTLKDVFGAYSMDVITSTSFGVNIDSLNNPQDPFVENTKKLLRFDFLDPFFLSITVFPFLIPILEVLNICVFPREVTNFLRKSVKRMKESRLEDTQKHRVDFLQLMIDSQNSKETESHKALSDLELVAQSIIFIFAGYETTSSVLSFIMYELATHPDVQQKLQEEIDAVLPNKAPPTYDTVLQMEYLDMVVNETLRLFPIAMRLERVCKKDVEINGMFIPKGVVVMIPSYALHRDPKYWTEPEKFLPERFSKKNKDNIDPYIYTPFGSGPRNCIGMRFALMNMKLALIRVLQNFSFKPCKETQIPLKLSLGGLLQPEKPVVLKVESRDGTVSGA
CYP2D6, sequence (P10635 whole entry): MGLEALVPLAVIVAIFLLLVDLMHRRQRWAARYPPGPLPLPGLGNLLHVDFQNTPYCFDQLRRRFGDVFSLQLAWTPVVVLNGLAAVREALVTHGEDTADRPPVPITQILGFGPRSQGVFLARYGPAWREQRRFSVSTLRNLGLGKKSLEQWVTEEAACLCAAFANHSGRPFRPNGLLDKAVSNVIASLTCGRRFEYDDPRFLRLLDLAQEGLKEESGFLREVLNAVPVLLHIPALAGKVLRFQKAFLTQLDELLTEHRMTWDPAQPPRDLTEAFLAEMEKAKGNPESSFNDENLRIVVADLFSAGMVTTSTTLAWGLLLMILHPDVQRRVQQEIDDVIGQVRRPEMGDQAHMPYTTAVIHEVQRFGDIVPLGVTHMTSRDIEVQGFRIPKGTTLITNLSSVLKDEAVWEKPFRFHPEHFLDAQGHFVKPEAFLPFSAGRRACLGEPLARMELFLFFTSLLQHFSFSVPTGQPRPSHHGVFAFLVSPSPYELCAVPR
CYP2C9, sequence (P11712 whole entry): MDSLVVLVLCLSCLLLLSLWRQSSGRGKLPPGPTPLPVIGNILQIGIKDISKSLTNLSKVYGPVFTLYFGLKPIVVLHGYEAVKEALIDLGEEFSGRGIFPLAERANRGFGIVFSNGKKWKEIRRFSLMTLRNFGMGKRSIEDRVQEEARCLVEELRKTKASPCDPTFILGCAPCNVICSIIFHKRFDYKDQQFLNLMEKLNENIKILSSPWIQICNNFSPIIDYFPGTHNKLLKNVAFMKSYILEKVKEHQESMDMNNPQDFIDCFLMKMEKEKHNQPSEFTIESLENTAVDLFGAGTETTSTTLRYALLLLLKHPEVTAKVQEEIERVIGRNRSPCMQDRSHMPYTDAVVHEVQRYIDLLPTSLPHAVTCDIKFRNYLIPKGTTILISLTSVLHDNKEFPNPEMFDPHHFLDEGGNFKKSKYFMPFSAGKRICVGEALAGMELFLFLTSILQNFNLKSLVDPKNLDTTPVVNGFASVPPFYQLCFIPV

Regarding `CC(C)C[C@](C)(N)COc1ccc(-c2ccnc(C(F)F)c2)c2nccn12`, the clearance was 11.7 mL/min/kg in series [1] and 31.7 mL/min/kg in [14]. In addition, the Vd came to 18 L/kg in [2] and 25 L/kg in [13]. Further, the Tmax in series [3] came to 1.2 h; in series [16] it was 1 h. For the same compound, the figures for the AUC(0-t) in series [4], in series [12] and in series [15] were 9150 ng·h/mL, 4640 ng·h/mL and 2270 ng·h/mL, respectively. Moreover, the bioavailability was determined as 103% in series [5] and 140% in series [17]. For the same compound, the half-life in [6] amounted to 1.47 h; in [7], 0.583 h; in [8], 3.07 h. Moreover, the fraction unbound in series [9] came out at 0.129. Also, the inhibition at 10 µM on CYP2C9, on CYP2D6, against CYP3A4 [10] and at CYP3A4 [11] was under 20% each time. Also, the Activity entry in the series with Rattus norvegicus was “Active; Compound Exhibited Comparable Efficacy To Lx9211”. The inhibition in [18] is 97%; in [19], 65%.
